# What was measured:
# [1] = molecular target: T1, human glucagon receptor (GCGR) (Homo sapiens, UniProt P47871); test: CRE-Luc cAMP-responsive luciferase reporter assay, glucagon receptor; assay type: cell-based
# T1 construct: expressed in transfected cells; host or cells: HEK-293 (transient, with Cre-luc reporter)
# Experimental: (§1) The start codon of SYFP2 was replaced by PCR with an XbaI site, and a NotI site was inserted behind the stop codon of SYFP2. The resulting fusion of receptor-SYFP2 was cloned in pcDNA3.
# (§2) HEK-293 and Flip-In HEK-293 cells (Invitrogen) were cultured in Dulbecco’s modified Eagle’s media supplemented with 10% foetal calf serum, 100 U/mL penicillin and 100 µg/mL streptomycin. Cells were maintained at 37 °C in a humidified environment containing 5% CO2. HEK-293 cells were transiently transfected using Effectene (Qiagen, Hilden, Germany), following the manufacturer’s protocol. In order to generate stable cell lines Flip-In HEK-293 cells were transfected with the pcDNA5.FRT vector and pOG44 using Effectene. Stable isogenic clones were selected by the addition of hygromycin (100 µg/mL).
# (§3) Twenty-four hours after transfection, the cells were seeded into white 96-well plates (Thermo Scientific, Roskilde, Denmark). Twenty-four hours later, the cells were incubated for 3 h in medium containing peptide ligand and then lysed. Luciferase activity was quantified using LucLite reagent (PerkinElmer Life and Analytic Sciences, Wellesley, MA, USA).
# (§4) Dose-response curves represent the mean ± S.E.M from at least three independent experiments, each performed in triplicates. […] The dose-response data were fitted to a sigmoidal curve using nonlinear regression, and the EC50 values calculated with the aid of GraphPad 8.0 (GraphPad Dan Diego, CA, USA). The values in Table 1 represent the mean ± S.E.M calculated from the pEC50 (−logEC50) values from at least three independent experiments. Statistical analysis of significance was calculated with GraphPad 8.0 using a two˗tailed, unpaired Student’s t-test.
# human GIPR = molecular target: T2, human GIPR (Homo sapiens, UniProt P48546); test: CRE-Luc cAMP-responsive luciferase reporter assay, GIP receptor; assay type: cell-based
# T2 construct: expressed in transfected cells; host or cells: HEK-293 (transient, with Cre-luc reporter)
# T2 sequence (P48546 22-466): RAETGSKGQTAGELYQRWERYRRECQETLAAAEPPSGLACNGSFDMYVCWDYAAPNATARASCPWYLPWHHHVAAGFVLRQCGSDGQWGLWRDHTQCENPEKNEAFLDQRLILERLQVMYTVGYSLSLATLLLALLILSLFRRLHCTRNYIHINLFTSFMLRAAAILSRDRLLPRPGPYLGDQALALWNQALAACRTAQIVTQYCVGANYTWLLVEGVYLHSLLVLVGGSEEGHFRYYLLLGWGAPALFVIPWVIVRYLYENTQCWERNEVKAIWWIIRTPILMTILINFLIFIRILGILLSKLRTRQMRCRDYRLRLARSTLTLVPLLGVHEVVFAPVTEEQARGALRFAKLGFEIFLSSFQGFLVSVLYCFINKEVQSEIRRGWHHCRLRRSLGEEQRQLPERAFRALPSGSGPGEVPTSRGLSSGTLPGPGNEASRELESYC
# Experimental: as §1, §2, §3, §4
# human GLP-1R = molecular target: T3, human GLP-1R (Homo sapiens, UniProt P43220); test: CRE-Luc cAMP-responsive luciferase reporter assay, GLP-1 receptor; assay type: cell-based
# T3 construct: expressed in transfected cells; host or cells: HEK-293 (transient, with Cre-luc reporter)
# Experimental: as §1
# HEK-293 and Flip-In HEK-293 cells (Invitrogen) were cultured in Dulbecco’s modified Eagle’s media supplemented with 10% foetal calf serum, 100 U/mL penicillin and 100 µg/mL streptomycin. Cells were maintained at 37 °C in a humidified environment containing 5% CO2. HEK-293 cells were transiently transfected using Effectene (Qiagen, Hilden, Germany), following the manufacturer’s protocol. […]
# Twenty-four hours after transfection, the cells were seeded into white 96-well plates (Thermo Scientific, Roskilde, Denmark). […] Luciferase activity was quantified using LucLite reagent (PerkinElmer Life and Analytic Sciences, Wellesley, MA, USA).
# as §4
# [2] = molecular target: T4, human GLP-1R (GLP-1R-Nluc) (Homo sapiens, UniProt P43220); test: BRET Gαs recruitment to GLP-1 receptor; assay type: cell-based; details: Gαs BRET (NES-Venus-Gαs), Flip-In HEK-293 cells stably expressing GLP-1R-Nluc, 15 min agonist; mean ± S.E.M., 4 independent experiments
# T4 construct: expressed in transfected cells; host or cells: Flp-In HEK-293 stably expressing GLP-1R-NLuc (pcDNA5-FRT); NES-Venus-Gαs transient
# Experimental: as §2, §4
# GIPR = details: cited from earlier work
# Source text: (§5) Several GLP-1R agonists (e.g., exenatide, liraglutide, and semaglutide) are currently used clinically to treat both T2DM and obesity. While they reduce mortality, improve glycemic control, reduce body weight and improve cardiovascular risk factors, the use of higher doses is often limited by adverse effects such as nausea and vomiting. There is therefore the potential to improve upon the current class of GLP-1R agonists. Targeting GIPR to treat T2DM and obesity has a somewhat contradictory history. Unlike GLP-1, pharmacological doses of exogenous GIP were not found to be ins ...
# rodent models = details: ref [26],[27]; cited from earlier work
# Source text: as §5
# T1 sequence (P47871 26-477): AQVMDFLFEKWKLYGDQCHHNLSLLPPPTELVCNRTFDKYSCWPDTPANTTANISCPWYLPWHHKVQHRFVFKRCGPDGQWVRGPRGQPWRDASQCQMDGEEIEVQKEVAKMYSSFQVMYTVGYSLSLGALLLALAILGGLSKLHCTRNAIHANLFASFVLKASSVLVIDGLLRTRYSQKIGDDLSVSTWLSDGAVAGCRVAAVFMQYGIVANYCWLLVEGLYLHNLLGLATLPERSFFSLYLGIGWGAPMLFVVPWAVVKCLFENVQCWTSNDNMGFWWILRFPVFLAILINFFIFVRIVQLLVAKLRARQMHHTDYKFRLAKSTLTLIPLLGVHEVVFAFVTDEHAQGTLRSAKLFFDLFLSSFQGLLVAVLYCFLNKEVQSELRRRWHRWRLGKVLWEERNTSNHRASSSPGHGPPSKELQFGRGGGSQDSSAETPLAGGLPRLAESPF
# T3 sequence (P43220 24-463): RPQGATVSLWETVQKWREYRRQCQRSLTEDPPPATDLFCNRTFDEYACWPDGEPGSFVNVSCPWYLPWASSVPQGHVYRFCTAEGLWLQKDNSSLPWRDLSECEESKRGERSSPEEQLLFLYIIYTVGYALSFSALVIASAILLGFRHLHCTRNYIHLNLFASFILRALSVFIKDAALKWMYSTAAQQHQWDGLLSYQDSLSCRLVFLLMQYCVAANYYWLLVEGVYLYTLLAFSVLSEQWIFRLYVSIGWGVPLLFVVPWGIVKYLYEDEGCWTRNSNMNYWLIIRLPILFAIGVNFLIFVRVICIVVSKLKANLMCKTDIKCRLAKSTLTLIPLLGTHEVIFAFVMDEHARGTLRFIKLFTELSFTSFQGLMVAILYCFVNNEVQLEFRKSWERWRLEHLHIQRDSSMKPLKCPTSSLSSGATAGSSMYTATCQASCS
# T4 sequence (P43220 24-463): as above
compound,measurement,setting,value
"CC[C@H](C)[C@H](NC(=O)[C@H](Cc1ccccc1)NC(=O)[C@H](CCC(=O)O)NC(=O)[C@H](CCCCN)NC(=O)[C@H](C)NC(=O)[C@H](C)NC(=O)[C@H](CCC(N)=O)NC(=O)CNC(=O)[C@H](CCC(=O)O)NC(=O)[C@H](CC(C)C)NC(=O)[C@H](Cc1ccc(O)cc1)NC(=O)[C@H](CO)NC(=O)[C@H](CO)NC(=O)[C@@H](NC(=O)[C@H](CC(=O)O)NC(=O)[C@H](CO)NC(=O)[C@@H](NC(=O)[C@H](Cc1ccccc1)NC(=O)[C@@H](NC(=O)CNC(=O)[C@H](CCC(=O)O)NC(=O)[C@H](C)NC(=O)[C@@H](N)Cc1c[nH]cn1)[C@@H](C)O)[C@@H](C)O)C(C)C)C(=O)N[C@@H](C)C(=O)N[C@@H](Cc1c[nH]c2ccccc12)C(=O)N[C@@H](CC(C)C)C(=O)N[C@H](C(=O)N[C@@H](CCCCN)C(=O)NCC(=O)N[C@@H](CCCNC(=N)N)C(=O)NCC(=O)O)C(C)C [GLP-1, Glucagon-like peptide-1]","activity at glucagon receptor, in words","[1]; CRE-Luc, HEK-293 cells, concentrations up to 1 µM",could not be detected
same,"activity at GIP receptor, in words","human GIPR; CRE-Luc, HEK-293 cells",Neither glucagon nor GLP-1 displayed any detectable activity
CC[C@H](C)[C@H](NC(=O)[C@H](CO)NC(=O)[C@H](Cc1ccc(O)cc1)NC(=O)[C@H](CC(=O)O)NC(=O)[C@H](CO)NC(=O)[C@@H](NC(=O)[C@H](Cc1ccccc1)NC(=O)[C@@H](NC(=O)CNC(=O)[C@H](CCC(=O)O)NC(=O)C(C)(C)NC(=O)[C@@H](N)Cc1ccc(O)cc1)[C@@H](C)O)[C@@H](C)O)C(=O)N[C@@H](Cc1ccc(O)cc1)C(=O)N[C@@H](CC(C)C)C(=O)N[C@@H](CC(=O)O)C(=O)N[C@@H](CCCCN)C(=O)N[C@@H](CCC(N)=O)C(=O)N[C@@H](C)C(=O)N[C@@H](C)C(=O)NC(C)(C)C(=O)N[C@@H](CCC(=O)O)C(=O)N[C@@H](Cc1ccccc1)C(=O)N[C@H](C(=O)N[C@@H](CC(N)=O)C(=O)N[C@@H](Cc1c[nH]c2ccccc12)C(=O)N[C@@H](CC(C)C)C(=O)N[C@@H](CC(C)C)C(=O)N[C@@H](C)C(=O)NCC(=O)NCC(=O)N1CCC[C@H]1C(=O)N[C@@H](CO)C(=O)N[C@@H](CO)C(=O)NCC(=O)N[C@@H](C)C(=O)N1CCC[C@H]1C(=O)N1CCC[C@H]1C(=O)N1CCC[C@H]1C(=O)N[C@@H](CO)C(=O)N[C@@H](CCCCN)C(N)=O)C(C)C [P18],EC50,human GLP-1R,0.2 nM
same,"Emax (% GLP-1), GLP-1 Receptor","human GLP-1R; maximum luciferase activity as a percentage of GLP-1, HEK-293 cells, 3 h incubation, mean ± S.E.M., at least 3 independent experiments, ND = no detectable activity at 1 µM, glucagon p < 0.01 vs GLP-1",106 ± 10.7 % GLP-1
same,EC50,[1],12600 nM
same,"Emax (% Glucagon), Glucagon Receptor","[1]; maximum luciferase activity as a percentage of glucagon, HEK-293 cells, 3 h incubation, mean ± S.E.M., at least 3 independent experiments, ND = no detectable activity at 1 µM, P18 p < 0.0001 vs glucagon",22.6 ± 1.96 d % Glucagon
same,EC50,[2],39.8 nM
same,"Emax (% GIP), GIP Receptor","human GIPR; maximum luciferase activity as a percentage of GIP, HEK-293 cells, 3 h incubation, mean ± S.E.M., at least 3 independent experiments, ND = no detectable activity at 1 µM",94.4 ± 4.09 % GIP
same,EC50,"human GIPR; −logEC50/M, CRE-Luc in transiently transfected HEK-293 cells, 3 h incubation, mean ± S.E.M., at least 3 independent experiments in triplicate, ND = no detectable activity at 1 µM, P18 p < 0.05 vs GIP, read-out: pEC50, GIP Receptor (converted)",15.8 nM
"Pro3GIP: derivative of GIP with a glutamic acid to proline substitution at position three (YAPGTFISDYSIAMDKIHQQDFVNWLLAQKGKKNDWKHNITQ; Gastric inhibitory polypeptide; UniProt P09681 52-93, looked up, variant E3P)","initially reported activity at GIPR, in words","GIPR; initial report, later contradicted, ref [26],[27]",GIPR antagonist
same,"activity at GIPR, in words","GIPR; ref [28],[29]",low potency GIPR agonist
same,protection against diabetes and obesity,rodent models,protective against diabetes and obesity in rodent models
